# Columns and labels:
# Format in all cases: cell-based, murine
# [1] = Photosensitivity of committed BM progenitors, colony forming assay; conditions: mouse
# Source text: (§1) Animals. C57B1/6 (Ly-5.2) and B6SJ-cd45 ^b pep 3^b /BOY J (Ly-5.1), were obtained from The Jackson Laboratories (Bar Harbor, Me.) and were maintained in the animal facility of the New York Blood Center. After gamma-irradiation, the animals were housed in microisolator cages and provided with autoclaved food and autoclaved acidified water (pH=3) ad libitum. Preparation of bone marrow cell suspensions--Ly-5.1 mice were used as the source of donor BM. Mice (8-10 weeks old) were killed and the BM was harvested by flushing the femoral shafts with Hank's balanced salt solution (HBSS), pH 7.4. The cell suspensions were centrifuged, washed once and the cells were finally resuspended in HBSS--10% vol/vol fetal bovine serum (FBS, Gemini Bioproducts Inc., Calabasas, Calif.).
# (§2) Photosensitization. Aliquots of a 1.87 mM Pc 4 (kindly provided by Dr. M. E. Kenney) stock solution in dimethyl sulfoxide were kept at -80° C. in autoclaved brown glass vials. Immediately prior to the photosensitization, Pc4 was thawed and diluted in dimethyl formamide to yield a 10 μM working solution. […] Pc 4 was used at 15 nM throughout the experiments.
# (§3) BM and cell line samples, were incubated with 15 nM Pc 4 for two hours at 37° C. at cell concentrations of 1.5×10^7 cells/mL. Aliquots of 1.5 mL were transferred to 24-well plates; separate plates were used for each sample.
# (§4) In a second set of experiments, the cells were incubated with 15 nM Pc 4 at cell concentrations of 1.5×10^6 cells/mL. Prior to photoirradiation, the samples were centrifuged and the supernatants were aspirated and set aside. The cell concentrations were adjusted to 1.5×10^7 cells/mL by adding back an appropriate volume of the Pc 4 containing aspirates.
# (§5) Photoinactivation. The light source used was a filtered xenon short arc lamp (Versa-Light, Model UV-R6G, Medic Lightech, Ltd., Haifa, Israel). It was used to deliver red light (λ 600-700 nm) to the sensitized cells. After a 20 minute warm up period of the instrument, the distance from the light source to the bottom of the 24-well plate was adjusted to obtain a fluence rate of 26.6 mW/cm^2, as measured with a radiometer (Model IL 1350, International Light, Newburyport, Mass.). Samples were placed under the light source and were stirred during the irradiations. Before and after the irradiations, samples were kept in the dark.
# (§6) Colony forming assays. BM samples were plated (in duplicate) in a semi-solid medium that contained IMDM (GibcoBRL), supplemented with 30% vol/vol FBS, 0.15% wt/vol deionized bovine serum albumin (Migliaccio, G., et al. Brit. J. Haematol. 67:129 (1987)) (Sigma, St. Louis, Mo.), 0.8% wt/vol methylcellulose, 75 μM β-mercaptoethanol (Sigma), antibiotics (100 U/mL penicillin, […], […] fungizone, GibcoBRL) and a cocktail of growth factors including: murine interleukin-3 (1% vol/vol COS-cell-derived supernatant, gift from Dr. K. Kaushansky), murine granulocyte-macrophage colony stimulating factor (1% vol/vol COS-cell-derived supernatant, gift from Dr. K. Kaushansky), recombinant human interleukin-11 (16 U/mL, gift from Genetics Institute, Cambridge, Mass.), recombinant rat stem cell factor (100 ng/mL), granulocyte colony stimulating factor (10 ng/mL), recombinant human erythropoietin (20 ng/mL, gifts from Amgen, Thousand Oaks, Calif.), and 800 U/mL murine thrombopoietin (800 U/mL, gift from Zymonetics, Seattle, Wash.). The samples were incubated at 37° C. in a humidified 5% CO2 -incubator and megakaryocyte colony forming units (CFU-Mk) were counted after 5 days. Blast forming units-erythroid (BFU-E), CFU-GM and mixed colonies (CFU-Mix) were counted after seven days.
# (§7) Statistics. All assays were performed in triplicate unless mentioned otherwise. Data are expressed as mean values±standard error of the mean (SEM). Survival data are presented as surviving fractions relative to the surviving fractions of the untreated controls. […]
# [2] = system: BFU-E; assay: as above; conditions: 15 nM, 1.5×10^6 cells/mL
# Source text: as §1, §2, §3, §4, §5, §6, §7
# [3] = system: CFU-GM; assay: as above; conditions: 15 nM, 1.5×10^6 cells/mL
# Source text: as §1, §2, §3, §4, §5, §6, §7
# [4] = system: CFU-Mix; assay: as above; conditions: 15 nM, 1.5×10^6 cells/mL
# Source text: as §1, §2, §3, §4, §5, §6, §7
# [5] = system: CFU-Mk; assay: as above; conditions: 15 nM, 1.5×10^6 cells/mL
# Source text: as §1, §2, §3, §4, §5, §6, §7
# [6] = system: committed BM progenitor cells; assay: as above
# Source text: as §1, §2, §3, §4, §5, §6, §7
compound,measurement,setting,value
"CN(C)CCC[Si](C)(C)O[Si]1(O)n2c3c4ccccc4c2N=C2N=C(N=c4c5ccccc5c(n41)=NC1=NC(=N3)c3ccccc31)c1ccccc12 (centres unmarked) [Pc 4, hydroxysiloxy-dimethylpropyl-N-dimethyl silicon phthalocyanine]",cytotoxicity at 0.015 µM,"[1]; bone marrow cfu-gm, 15 nM Pc 4, murine BM, read-out: losses of CFU-GM on incubation",0 to 15%
same,viability at 0.015 µM,"[1]; bone marrow progenitors, 15 nM, 1.5×10^7 cells/mL, 18 J/cm^2, read-out: surviving fraction (colony forming ability relative to untreated controls)",< 0.3%
same,fluence for photoinactivation to below the detection levels,[2],3 J/cm^2
same,fluence for photoinactivation to below the detection levels,[3],6 J/cm^2
same,fluence for photoinactivation to below the detection levels,[4],3 J/cm^2
same,fluence for photoinactivation to below the detection levels,[5],6 J/cm^2
same,photosensitivity of all committed progenitor subsets,"[6]; 15 nM, 1.5×10^7 cells/mL, 3 J/cm^2",resistant
same,loss of committed progenitor cells,"[6]; Pc 4, 18 J/cm^2",2-3 logs

# Reference: patent US6159733A, “Method for photoinactivating malignant cells” (priority 1996, dated 2000)
